Source: paper PMC7791840, “The R-enantiomer of ketorolac reduces ovarian cancer tumor burden in vivo” (BMC Cancer, 2021)
Where a name gives a salt, the structure may show the parent alone. One block for each compound: values may come before it.

Assays:
[1] = Toxicity assessment, blood chemistry after chronic treatment; type: in vivo; settings: tumor-bearing mice, 5 mg/kg/d, 25 days, Average ± SD
Experimental: For toxicity assessment studies at an increased R-ketorolac dose of 5 mg/kg/d, athymic nude female mice were purchased from Charles River Laboratory (Wilmington, MA, strain code 490). Mice were injected i.p. with 1 × 10^6 SKOV3ip-RLuc-GFP cells suspended in sterile saline. Xenografts were established until tumors reached a bioluminescence imaging (BLI) value of ~ 3 × 10^8 radiance (IVIS SpectrumCT, PerkinElmer, Waltham MA). Mice were conditioned to placebo pills once a day for no less than 3 days during xenograft growth, then randomized to receive placebo or 5 mg/kg/d R-ketorolac for 25 days. Blood was collected via cardiac puncture and 0.2–0.4 mL was added to Lithium Heparin tubes (BD Microtainer, Ref #365965). Samples were mixed thoroughly immediately after filling the tube by gently inverting the tube by hand. Samples were kept and analyzed at room temperature within 60 min of collection. For each sample analysis 100 μl of blood was added to Abaxis Comprehensive Diagnostic Profile cassette (Abaxis, Inc. Union City, CA Ref. # 500–0038-24) and values obtained using Abaxis VetScan2 analyzer.

Cdc42 = tested on: Cdc42; set-up: method as in earlier work; settings: cell-based assays, ovarian tumor cells; ref 23 (R-ketorolac), 27 (S-ketorolac); cited from earlier work
[2] = set-up: method as in PMID 8809637; settings: single dose oral administration of R-ketorolac; cited from earlier work
[3] = Enantiomer stability of ketorolac in the oral dosage form (HPLC); type: physicochemical; settings: transgenic dough pills stored at 4 °C
Experimental: As an alternative to gavage for oral delivery, drug was administered in pills formed from transgenic dough (BioServ, Flemington, NJ, cat #S3472). […] Briefly, R-Ketorolac was dissolved in 100% ethanol to a concentration of 5 mg/ml. Bromophenol blue was added to solutions at a final concentration of 0.1% as an aid to ensure even distribution of drug into the dough. Placebo pills were made using an equivalent volume of 100% ethanol containing 0.1% bromophenol blue. Dough was then pressed using 100 mg pill forms (Gallipot, St. Paul, MN). Pills were allowed to dry at room temperature overnight then removed from the forms and stored at 4 °C. Ketorolac, as racemic compound or individual enantiomer, was stable for at least 3 months in the pills as determined by high performance liquid chromatography (HPLC) (Additional File 2: Figure S1).
Cell Culture and Reagents
SKOV3ip cells were modified to express GFP-Rac1 by transfection with pcDNA3-EGFP-Rac1-wt (Catalog # 12980, Addgene) as described for SKOV3ip-GFP cells under Methods. Rac1 overexpression quantification and verification was completed by western blot and qPCR. […]
Omental tissue was harvested and stored on ice in PBS for no more than 1 hour before analysis. Omenta were blotted dry on lab tissue and weight was measured using an analytical balance (Denver Instruments Company, A -160). […]

[4] = ROS model for points below limit of detection

SMILES: O=C(c1ccccc1)c1ccc2n1CC[C@H]2C(=O)O [R-ketorolac]
Alanine aminotransferase [1]: 32.30 ± 11.35 U/L | Albumin [1]: 4.05 ± 0.40 g/dL | Amylase [1]: 1069 ± 264 U/L | Blood Urea Nitrogen [1]: 16.4 ± 2.59 mg/dL | Calcium [1]: 11.58 ± 0.79 mg/dL | Globulin [1]: 1.77 ± 0.43 g/dL | Glucose [1]: 287.7 ± 81.31 mg/dL | Mouse Weight [1]: 23.67 ± 1.30 g | Phosphorus [1]: 9.86 ± 1.90 mg/dL | Sodium [1]: 151.3 ± 4.11 mmol/L | Total Bilirubin [1]: 0.26 ± 0.05 mg/dL | Total Protein [1]: 5.79 ± 0.34 g/dL | Alkaline phosphatase [1, 4]: 28.97 ± 18.75 U/L | Creatinin [1, 4]: 0.24 ± 0.13 mg/dL | IC50 (Cdc42): 1070 nM | Maximal peak serum concentration [2]: 2.48 µg/mL

Stability in pills [3]: at least 3 months
SMILES: O=C(c1ccccc1)c1ccc2n1CCC2C(=O)O (centres unmarked) [R−/S-ketorolac, ketorolac tromethamine salt]
